Each block holds one molecule with its values, some of them ahead of it.
Key:
[1] = tested on: 293T cells transfected with INS-DRiP-GFP; assay: Effect of ER stress inducers on DRiP expression in INS-DRiP-GFP transfected cells; format: cell-based, human; settings: western blot and flow cytometry
Excerpt: FIG. 8A is a western blot of 293T cell lysates (left to right) in nontransfected cells (NT), or cells transfected with INS-DRiP-GFP that were untreated (−), stimulated with thapsigargin (TG), or stimulated with tunicamycin (TM). The western blot in FIG. 8A is labeled using anti-GFP, anti-insulin, and anti-actin antibodies. FIG. 8B is a chart depicting densitometry analyses of the western blot in FIG. 8A analyzing the GFP (black bars) and insulin bands (gray bars) and shown as induction ratio±s.d. where the intensity of the nontreated cells was used as reference (right).
The effect of endoplasmic reticulum stress (ER stress) on translation initiation was also determined. Cells transfected with INS-DRiP-GFP were stimulated with the ER stress-inducers thapsigargin (TG) or tunicamycin (TM).

[2] = tested on: human beta cell line (1.1B4); assay: Insulin mRNA and DRiP protein expression in beta cell line under stress; format: cell-based; settings: 1.1B4 cells stressed with TG
Excerpt: FIGS. 22A-B illustrates ex vivo cleavage of insulin mRNA in a cell line. FIG. 22A is a bar graph illustrating insulin mRNA expression change when beta cells are stressed with Thapsigargin (TG). FIG. 22B is a bar graph illustrating DRiP protein expression when beta cells are stressed with TG.
Ex vivo insulin mRNA expression and DRiP protein expression in beta cell line under stress. Ex vivo cleavage of insulin mRNA was examined in a 1.1B4 cell line. A human beta cell line (1.1B4) was stressed with Thapsigargin (chemical), with or without inhibition of IRE1, followed by analysis of the insulin mRNA expression and DRiP protein expression. […] But it is not enough to prevent an increase in DRiP expression. The protective SNP may have this effect ex vivo.

[3] = tested on: cells transfected with INS-DRiP-GFP vectors; assay: DRiP-GFP expression from INS-DRiP-GFP vectors; format: cell-based; settings: both variants
Excerpt: Method: Two vectors of INS-DRiP-GFP (one of the protective genotype and one of the susceptible genotype) that express insulin and DRiP linked to GFP were created (FIG. 28). The vectors were transfected into cells, and GFP expression was observed when translation is started at the DRiP start codon.

HLA-DQ8cis [4] = target: HLA-DQ8cis (Homo sapiens, UniProt P01909+P01920, A209T/A45G/C70Q/D89A/E183D/E77G/F237L/G63E/H199R/I129T/K197E/L178F/L74F/L98V/Q57E/Q76R/S185I/S97I/T217I/T49S/V73L/Y58L); settings: cell-free; cited from earlier work
HLA-DQ8trans [5] = target: HLA-DQ8trans (Homo sapiens, UniProt P01909+P01920, A45G/D89A/E77G/H199R/N214S/Y58L); settings: cell-free; cited from earlier work
HLA-DQ2trans [6] = target: HLA-DQ2trans (Homo sapiens, UniProt P01909+P01920, A45G/A70V/C70Q/D89A/E106A/E183D/E77G/E98D/G63E/H199R/I129T/K197E/L107V/L178F/L74F/L98V/N214S/P84L/P87L/Q57E/Q76R/S185I/S97I/T103K/T109R/T172A/T49S/T60S/V73L/V78E/V99I/Y58L/Y62S/Y69I/Y79F); settings: cell-free; cited from earlier work
HLA-A2 = settings: cited from earlier work
HLA-DQ8cis [7] = target: T1, HLA-DQ8cis (human, UniProt P01909 24-216; P01920 33-230, limits assumed); assay: cell-free HLA-DQ binding studies
T1 MHC II alpha: not shown
T1 MHC II beta: not shown

HLA-DQ8trans [8] = target: T2, HLA-DQ8trans (human, UniProt P01909 24-216; P01920 33-230, limits assumed); assay: cell-free HLA-DQ binding studies
T2 construct: Formed by the alpha-chain of HLA-DQ2 (DQA1*05:01) and the beta-chain of HLA-DQ8 (DQB1*03:02) (so in the source)
T2 MHC II alpha: not shown
T2 MHC II beta: not shown

HLA-DQ2cis = HLA-DQ2cis (human, UniProt P01909 24-216, limits assumed); assay: cell-free HLA-DQ binding studies
HLA-DQ2trans [9] = target: T3, HLA-DQ2trans (human, UniProt P01909 24-216, limits assumed); assay: cell-free HLA-DQ binding studies
T3 construct: Formed by the alpha-chain of HLA-DQ8 (DQA1*03:01) and the beta-chain of HLA-DQ2 (DQB1*02:01) (so in the source)
T3 MHC II alpha: not shown
T3 MHC II beta: not shown

Molecule: C/C=C(/C)C(=O)O[C@H]1C(C)=C2[C@H]([C@@H]1OC(=O)CCCCCCC)[C@@](C)(OC(C)=O)C[C@H](OC(=O)CCC)[C@@]1(O)[C@H]2OC(=O)[C@@]1(C)O [TG, thapsigargin]
expression of DRiP polypeptide [1]: increased | DRiP protein expression [2]: goes up | insulin RNA expression ([2]; with or without IRE1 inhibition): goes down | effect on DRiP-GFP expression [3]: increased in both variants

Molecule: tunicamycin [TM]
expression of DRiP polypeptide [1]: increased by TG but not TM

Molecule: MLYQHLLPL [INS-DRiP1-9]
binding affinity to HLA-DQ8cis (HLA-DQ8cis [4]): strong binding affinity | binding affinity to HLA-DQ8trans (HLA-DQ8trans [5]): strong binding affinity | binding affinity to HLA-DQ2trans (HLA-DQ2trans [6]): not | binding to HLA-A2 (HLA-A2): high affinity

binding result (HLA-DQ8cis [7]): binds | binding result (HLA-DQ8trans [8]): binds | binding result (HLA-DQ2cis): no binding | binding result (HLA-DQ2trans [9]): no binding
B1: INS-DRiP1-9 epitope MLYQHLLPL (peptide)
peptide: MLYQHLLPL
notes: Synthetic counterpart of the N-terminal 9-mer of INS-DRiP; also called 9-mer peptide; INS-DRiP peptide fragment

Reference: patent publication US20220267774A1, “METHODS AND COMPOSITIONS TO DIRECT BREAKDOWN OF INSULIN MRNA IN BENIGN FASHION” (CITY OF HOPE, priority 2019, published 2022)
